Values quoted from earlier work, collected in US5116619A, “Vaginal progesterone tablet” (priority 1988, dated 1992).

## CC(=O)[C@H]1CC[C@H]2[C@@H]3CCC4=CC(=O)CC[C@]4(C)[C@H]3CC[C@]12C [progesterone, pregn-4-ene-3,20-dione]
Endogenous progesterone
  plasma half-life: a few minutes
feces
  administered radiolabeled progesterone in feces: about 10%
In vivo, po
  serum levels after oral administration: significant but highly variable serum levels
Intravenous injections
  first half-life: 5 to 6 min
  second half-life: 42 to 45 min
parenteral, site of injection
  local tolerability of deep intramuscular injections: often very painful and irritating at the site of injection
rectal, Steege et al.
  absorption by the rectal route: highly variable
Suggested by Myers et al.
  time in which all exogenous progesterone is metabolized: ≤ 24 h
urine
  administered radiolabeled progesterone in urine: 50 to 60%
